Reference: the supplement of paper PMC12490022
± gives the uncertainty stated by the source.

Test system: ozone
Experiment: apparent second-order rate constant for reaction with ozone (kapp,O3) (M-1 s-1); higher = faster oxidation by ozone
Settings: pH 7; temperature: 22 C; OH radical scavenger: tBuOH 80 mM; phosphate 4 mM
Experimental: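 Apparent second-order rate constants for reaction with ozone at pH 7 were determined by multicompound competition kinetics. Mixtures of targets and competitors (10 ug/L each) were ozonated in 4 mM phosphate buffer, pH 7, with 80 mM tBuOH as OH-radical scavenger, at 22 ± 1 °C. Peak-area abatement was measured by HPLC-HRMS/MS and k was derived from ln-ln slopes against competitors with known k (R2 > 0.9, >= 10 points, slope 0.1-10). Experiments were run in triplicate on 3 days; the value is the mean over valid competitors ± SD.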

SMILES | apparent second-order rate constant
CNCCCC(C#N)(c1ccc(OC)c(OC)c1)C(C)C (configuration not stated) | 2300 ± 200
Cn1c(=O)[nH]c2[nH]c(=O)n(C)c2c1=O [1,7-Dimethyluric acid] | 6.6e+07 ± 1.4e+07
Clc1cccc(N2CCNCC2)c1 [1-(3-Chlorophenyl)piperazine] | 2.1e+06 ± 400000
Clc1ccc(C(c2ccccc2)N2CCNCC2)cc1 (configuration not stated) [1-(4-Chlorobenzhydryl)piperazine] | 7700 ± 630
CC(C(=O)O)c1ccc(C(O)C(C)C)cc1 (configuration not stated) [1-Hydroxyibuprofen] | 14.7 ± 1.6
CN1CCN2c3ncccc3Cc3ccccc3C2C1=O (configuration not stated) [1-Oxo-mirtazapine] | 64000 ± 14000
CC=C1N(C)C(C)CC1(c1ccccc1)c1ccccc1 (configuration not stated) [2-Ethylidene-1,5-dimethyl-3,3-diphenylpyrrolidine (EDDP)] | 99000 ± 18000
Cc1cc(=O)[nH]c2c1NC(=O)c1cccnc1N2C1CC1 [2-Hydroxynevirapine] | 1.56e+07 ± 1.2e+06
CC(CN(C)C)CN1c2ccccc2CCc2cc(O)ccc21 (configuration not stated) [2-Hydroxytrimipramine] | 8.7e+07 ± 1.9e+07
N[C@@H](Cc1cc(I)c(O)c(I)c1)C(=O)O [3,5-Diiodo-L-tyrosine] | 2.87e+06 ± 220000
Oc1cnc2c(c1)CCc1cc(Cl)ccc1C2=C1CCNCC1 [3-Hydroxydesloratadine] | 6.3e+07 ± 1.4e+07
O=C(O)CCNC(=O)c1ccc(Cl)cc1 [3-[(4-Chlorobenzoyl)amino]propanoic acid] | 0.194 ± 0.008
O=C(O)Cc1ccccc1Nc1c(Cl)cc(O)cc1Cl [4'-Hydroxydiclofenac] | 6.95 ± 0.38
COc1c(CSc2nc3ccc(OC(F)F)cc3[nH]2)[nH]ccc1=O [4'-O-Demethyl-pantoprazole sulfide] | 21000 ± 2000
Nc1cc(Cl)c(S(N)(=O)=O)cc1S(N)(=O)=O [4-Amino-6-chlorobenzene-1,3-disulfonamide] | 90.5 ± 4.7
COc1cc(Cc2cnc(N)nc2N)cc(OC)c1O [4-Desmethyltrimethoprim] | 3.6e+07 ± 86
CC(N)Cc1ccc(O)cc1 (configuration not stated) [4-Hydroxyamphetamine] | 2.48e+06 ± 220000
Oc1ccc(C(F)(F)F)cc1 [4-Trifluoromethylphenol] | 1.43e+06 ± 150000
Nc1[nH]c(=O)ncc1F [5-Fluorocytosine] | 24300 ± 2500
O=C(O)Cc1cc(O)ccc1Nc1c(Cl)cccc1Cl [5-Hydroxydiclofenac] | 6.4e+07 ± 1.4e+07
Nc1ccc(S(=O)(=O)Nc2ccc(O)cn2)cc1 [5-Hydroxysulfapyridine] | 1.6e+08 ± 3e+07
CC(=O)OC1C=CC2C3Cc4ccc(O)c5c4C2(CCN3C)C1O5 (configuration not stated) [6-Acetylmorphine] | 1.29e+07 ± 1.1e+06

SMILES | apparent second-order rate constant
C/C(=C\Cc1c(O)c(C)c2c(c1O)C(=O)OC2)CCC(=O)O [6-O-Desmethyl mycophenolic acid] | 9.2e+07 ± 2e+07
CN1CCN2c3ncc(O)cc3Cc3ccccc3C2C1 (configuration not stated) [8-Hydroxymirtazapine] | 5.4e+07 ± 1.2e+07
O=C1Nc2c(CO)ccnc2N(C2CC2)c2ncccc21 [12-Hydroxynevirapine] | 392 ± 21
CC[N+]1([O-])CCCC1CNC(=O)c1cc(S(=O)(=O)CC)c(N)cc1OC (configuration not stated) [Amisulpride-N-oxide] | 1190 ± 100
CC1(C)SC(CNC(=O)C(N)c2ccc(O)cc2)NC1C(=O)O (configuration not stated) [Amoxicillin impurity E] | 9e+06 ± 1.9e+06
CC1(C)SC2C(NC(=O)C(N)c3ccc(O)cc3)C(=O)N2C1C(=O)O (configuration not stated) [Amoxicillin] | 2.2e+06 ± 190000
CC(N)Cc1ccccc1 (configuration not stated) [Amphetamine] | 34 ± 4
COC(=O)C1=CCC2CCC1N2C (configuration not stated) [Anhydroecgonine methyl ester] | 44000 ± 10000
CC[C@H]1OC(=O)[C@H](C)[C@@H](O[C@H]2C[C@@](C)(OC)[C@@H](O)[C@H](C)O2)[C@H](C)[C@@H](O[C@@H]2O[C@H](C)C[C@H]([N+](C)(C)[O-])[C@H]2O)[C@](C)(O)C[C@@H](C)CN(C)[C@H](C)[C@@H](O)[C@]1(C)O [Azithromycin-N-oxide] | 1150 ± 74
CCC1OC(=O)C(C)C(OC2CC(C)(OC)C(O)C(C)O2)C(C)C(OC2OC(C)CC(N(C)C)C2O)C(C)(O)CC(C)CN(C)C(C)C(O)C1(C)O (configuration not stated) [Azithromycin] | 72000 ± 17000
CN1C2CCC1C(C(=O)O)C(OC(=O)c1ccccc1)C2 (configuration not stated) [Benzoylecgonine] | 11.3 ± 1.2
CC(=O)Oc1ccc(C(c2ccc(OC(C)=O)cc2)c2ccccn2)cc1 [Bisacodyl] | 2.6 ± 0.3
CC(NC(C)(C)C)C(=O)c1cccc(Cl)c1 (configuration not stated) [Bupropion] | 315 ± 15
CC(Cc1ccc(C(C)C(=O)O)cc1)C(=O)O (configuration not stated) [Carboxyibuprofen] | 11.8 ± 1.3
O=C(O)COCC[N+]1([O-])CCN(C(c2ccccc2)c2ccc(Cl)cc2)CC1 (configuration not stated) [Cetirizine-N-oxide] | 5670 ± 460
O=C(O)COCCN1CCN(C(c2ccccc2)c2ccc(Cl)cc2)CC1 (configuration not stated) [Cetirizine] | 359000 ± 31000
NS(=O)(=O)c1cc2c(cc1Cl)NC=NS2(=O)=O [Chlorothiazide] | 1.57 ± 0.17
CN(C)CCCC1(c2ccc(F)cc2)OCc2cc(C#N)ccc21 (configuration not stated) [Citalopram] | 12600 ± 1100
CCCC1CC(C(=O)NC(C(C)Cl)C2OC(S(C)=O)C(O)C(O)C2O)N(C)C1 (configuration not stated) [Clindamycin-sulfoxide] | 336000 ± 30000
CCCC1CC(C(=O)NC(C(C)Cl)C2OC(SC)C(O)C(O)C2O)N(C)C1 (configuration not stated) [Clindamycin] | 749000 ± 65000
CC(C)(Oc1ccc(Cl)cc1)C(=O)O [Clofibric acid] | 23 ± 3

The remaining lines, values ahead:

apparent second-order rate constant | SMILES
562 ± 27 | O=c1ccn(C2OC(CO)C(O)C2(F)F)c(=O)[nH]1 (configuration not stated) [2'-Deoxy-2',2'-difluorouridine]
1.02e+07 ± 700000 | Nc1c(I)c(N)c(I)c(C(=O)O)c1I [3,5-Diamino-2,4,6-triiodobenzoic acid]
1.17e+07 ± 900000 | COc1cc(Cc2cnc(N)nc2N)cc(O)c1OC [3-Desmethyltrimethoprim]
9.3e+07 ± 2e+07 | Cc1c(CO)cccc1Nc1ccccc1C(=O)O [3-Hydroxymethylmefenamic acid]
294000 ± 26000 | Cc1c(N)c(=O)n(-c2ccccc2)n1C [4-Aminoantipyrine]
0.58 ± 0.04 | O=C(c1ccccc1)c1ccc(Cl)cc1 [4-Chlorobenzophenone]
61000 ± 14000 | Cc1c(NC=O)c(=O)n(-c2ccccc2)n1C [4-Formylaminoantipyrine]
8.8e+06 ± 600000 | Nc1nc(NC2CC2)c2ncn(C3C=CC(CO)C3)c2n1 (configuration not stated) [Abacavir]
1.04e+06 ± 86000 | COc1ccc2c(c1)c(CC(=O)OCC(=O)O)c(C)n2C(=O)c1ccc(Cl)cc1 [Acemethacin]
22000 ± 5000 | COCCCOc1cc(CC(CC(N)C(O)CC(C(=O)NCC(C)(C)C(N)=O)C(C)C)C(C)C)ccc1OC (configuration not stated) [Aliskiren]
3.9 ± 0.4 | O=c1ncnc2[nH][nH]cc1-2 [Allopurinol]
18000 ± 1600 | CCN1CCCC1CNC(=O)c1cc(S(=O)(=O)CC)c(N)cc1OC (configuration not stated) [Amisulpride]
9.9e+07 ± 2.2e+07 | CCOC(=O)C1=C(COCCN)NC(C)=C(C(=O)OC)C1c1ccccc1Cl (configuration not stated) [Amlodipine]
3.75e+06 ± 540000 | O=C1C=CC(=C2NC=CNC2=O)C=C1 [Amoxicillin impurity F]
845 ± 57 | CC(C)NCC(O)COc1ccc(CC(=O)O)cc1 (configuration not stated) [Atenolol acid]
1580 ± 72 | CC(C)NCC(O)COc1ccc(CC(N)=O)cc1 (configuration not stated) [Atenolol]
1.5e+08 ± 3e+07 | CC(C)c1c(C(=O)Nc2ccccc2)c(-c2ccccc2)c(-c2ccc(F)cc2)n1CCC(O)CC(O)CC(=O)O (configuration not stated) [Atorvastatin]
< 0.401 | O=C(c1ccccc1)c1ccccc1 [Benzophenone]
24.4 ± 1.3 | CC(=O)OCC(=O)[C@@]1(O)[C@@H](C)C[C@H]2[C@@H]3CCC4=CC(=O)C=C[C@]4(C)[C@@]3(F)[C@@H](O)C[C@@]21C [Betamethasone-21-acetate]
35.8 ± 1.8 | CC1CC2C3CCC4=CC(=O)C=CC4(C)C3(F)C(O)CC2(C)C1(O)C(=O)CO (configuration not stated) [Betamethasone]
< 0.401 | NC(=O)N1c2ccccc2C2OC2c2ccccc21 (configuration not stated) [Carbamazepine-10,11-epoxide]
< 0.401 | CC[C@H]1OC(=O)[C@H](C)[C@@H](O[C@H]2C[C@@](C)(OC)[C@@H](O)[C@H](C)O2)[C@H](C)[C@@H](O[C@@H]2O[C@H](C)C[C@H]([N+](C)(C)[O-])[C@H]2O)[C@](C)(OC)C[C@@H](C)C(=O)[C@H](C)[C@@H](O)[C@]1(C)O [Clarithromycin-N-oxide]
65000 ± 15000 | CCC1OC(=O)C(C)C(OC2CC(C)(OC)C(O)C(C)O2)C(C)C(OC2OC(C)CC(N(C)C)C2O)C(C)(OC)CC(C)C(=O)C(C)C(O)C1(C)O (configuration not stated) [Clarithromycin]
175000 ± 14000 | O=C(O)C(c1ccccc1Cl)N1CCc2sccc2C1 (configuration not stated) [Clopidogrel carboxylic acid]
